How the values were obtained:
[1] = system: adipose tissue macrophages (ATM); assay: Flow cytometry of adipose tissue macrophage subsets in stromal-vascular fraction of WAT, db/db mice; assay type: in vivo
[2] = system: PPAR γ and PPAR γ-responsive genes in WAT; assay: Quantitative real-time RT-PCR of white adipose tissue (WAT) of db/db mice; assay type: in vivo
From the text: Complementary DNA (cDNA) concentrations for β-actin, PPAR γ, PPAR α, PPAR δ, adiponectin, CD36, aP2, and TNF-α were examined by real-time quantitative PCR using and iCycler IQ System and the iQ SYBR green supermix (Bio-Rad). SYBR green I is a general double-stranded DNA intercalating dye and, therefore, may detect nonspecific products and primer/dimers in addition to the amplicon of interest. In order to determine the number of products produced during the real-time PCR, a melting curve analysis was performed on each product. Real-time PCR was used to measure the starting amount of nucleic acid of each unknown sample of cDNA on the same 96-well plate. Results are presented as starting quantity of cDNA (picograms) per microgram of mRNA.

[3] = system: mesenteric lymph node-derived lymphocytes; assay: Proliferation and PGE2 production, mesenteric lymph node-derived lymphocytes; assay type: cell-based, mice
PPAR γ = biological target: T1, PPAR γ (Mus musculus, UniProt P37238); details: ABA 12.5 μM, rosiglitazone 1 μM; previously found (ref 48); cited from earlier work
T1 construct: expressed in transfected cells; host or cells: 3T3-L1 pre-adipocytes (ATCC)
T1 sequence (P37238 1-505): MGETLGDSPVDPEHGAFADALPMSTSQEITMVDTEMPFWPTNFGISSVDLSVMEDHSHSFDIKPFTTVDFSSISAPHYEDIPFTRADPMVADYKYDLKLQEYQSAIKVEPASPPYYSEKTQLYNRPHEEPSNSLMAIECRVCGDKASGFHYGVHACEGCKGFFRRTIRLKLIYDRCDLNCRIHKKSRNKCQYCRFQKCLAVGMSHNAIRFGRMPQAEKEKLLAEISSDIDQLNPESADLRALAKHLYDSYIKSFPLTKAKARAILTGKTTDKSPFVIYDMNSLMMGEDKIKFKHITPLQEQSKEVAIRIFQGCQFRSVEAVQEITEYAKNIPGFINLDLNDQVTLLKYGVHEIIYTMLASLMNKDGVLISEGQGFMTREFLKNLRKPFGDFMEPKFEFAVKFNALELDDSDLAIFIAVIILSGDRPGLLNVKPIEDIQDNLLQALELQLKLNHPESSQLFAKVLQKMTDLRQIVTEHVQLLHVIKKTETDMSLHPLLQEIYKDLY

db/db mice = assay: Fasting glucose, plasma MCP-1, plasma and liver triglycerides, hepatic steatosis, body weight in db/db mice (Example 9); assay type: in vivo
Method: Hepatic Steatosis, plasma MCP-1 and liver triglyceride content Liver specimens were excised and immediately fixed in 10% phosphate buffered neutral formalin, embedded in paraffin, cut at thicknesses of 5 microns and stained with hematoxylin and eosin (H&E) for histological examination. For hepatic triglyceride assessment, livers fragments (50-100 mg) were extracted for 16 hours at 4° C. with 4 ml CHCl/methanol (2:1, vol/vol). Two milliliters of 0.6% NaCl were then added to the extract, and the mixture was centrifuged at 2,000×g for 20 minutes. Lipids were isolated by nitrogen evaporation, dissolved in 100 μl isopropanol, and quantified with a triglyceride assay kit (Stanbio). The Triglyceride Assay Kit (Sigma) and Ready-set-go MCP-1 ELISA (ebioscience) were used to quantify plasma TGs and MCP-1, respectively, according to manufacturer's instructions.

MCP-1 promoter = MCP-1 promoter luciferase reporter in 3T3-L1 pre-adipocytes; assay type: cell-based
Method: 3T3-L1 cells (American Type Culture Collection, Manassas, Va.) were grown in 24-well plates in DMEM high glucose medium (Invitrogen, Carlsbad, Calif.) containing 10% fetal bovine serum (FBS) until 60-70% confluence. Before transfection, the medium was changed to 1% FBS. The cells cultured in 24-well plates were co-transfected with 0.8 μg plasmid DNA and 1 ng of pRL reporter control plasmid per well using F-1 transfection reagents (Targeting Systems, Santee, Calif.) according to the manufacturer's protocol. Transfection efficiencies were determined by cotransfecting the cells with a pcDNA™ 3.1/His/lacZ control vector at 24 h. The transfected cells were then treated with either a racemic ABA mixture (12.5 μM; Sigma) or rosiglitazone (1 μM; Cayman Chemicals, Ann Arbor, Mich.) for 24 hours. Designated wells were also treated with the PPAR γ antagonist GW9662 (30 μM; Cayman Chemicals). Transfected cells were harvested in reporter lysis reagent. Luciferase activity, normalized to pRL activity in the cell extracts was determined by using the dual luciferase reporter assay system (Promega, Madison, Wis.) in a TD-20/20 Single-Tube Luminometer (Turner Biosystems, Sunnyvale, Calif.). Relative luciferase activity (RLA) was calculated as a ratio of the chemiluminescence 10 seconds after the Luciferase Assay Reagent II (Promega) was added over the chemiluminescence 10 seconds after the Stop&Glo Reagent (Promega).
To further examine the effect of ABA on MCP-1 transactivation, 3T3-L1 preadipocytes were transfected with a MCP-1 promoter luciferase reporter construct and also cotransfected with a pCMX PPAR γ expression plasmid to increase endogenous PPAR γ activity. Cells were then treated with ABA (12.5 μM), rosiglitazone (1 μM), the PPAR γ antagonist GW9662 (30 μM), or a combination of agonist and inhibitor.

[4] = system: dextran sodium sulfate (DSS)-induced colitis; assay: DSS-induced colitis in C57BL/6J mice: disease activity, macroscopic scores, histopathology; assay type: in vivo
Method: Six to eight week old C57BL/6J mice (n=20) and were housed at the animal facilities at Virginia Polytechnic Institute and State University in a room maintained at 75° F., with a 12:12 h light-dark cycle starting from 6:00 AM. All experimental procedures were approved by the Institutional Animal Care and Use Committee of Virginia Polytechnic Institute and State University and met or exceeded requirements of the Public Health Service/National Institutes of Health and the Animal Welfare Act. C57BL/6J mice were fed AIN-93G-based diets with or without 100 mg/kg of a racemic ABA mixture for 35 days prior to induction of colitis with water containing 2.5% dextran sodium sulfate (DSS), […] (ICN Biomedicals, Aurora, Ohio). After the DSS challenge mice were weighed on a daily basis and examined for clinical signs of disease associated with colitis (i.e., perianal soiling, rectal bleeding, diarrhea, and piloerection). For the DSS challenge, the disease activity indices and rectal bleeding scores were calculated using a modification of a previously published compounded clinical score (50). Briefly, the disease activity index consisted of a scoring for diarrhea and lethargy (0-3), whereas rectal bleeding consisted of a visual observation of blood in feces and the perianal area (0-4). Mice in the DSS study were euthanized on day 7 of the DSS challenge. On day 7 blood mice were euthanized by CO2 asphyxiation and blood was withdrawn from the heart. Spleen and mesenteric lymph nodes (MLN) were scored based on size and macroscopic inflammatory lesions (0-3), excised, and then crushed to produce single-cell suspensions for flow cytometry.
Colonic sections were fixed in 10% buffered neutral formalin, later embedded in paraffin, and then sectioned (5 μm) and stained with H&E stain for histologic examination. Colons were graded with a compounded histologic score including the extent of (1) lymphocyte infiltration, (2) mucosal thickening, and (3) epithelial cell erosion. The sections were graded with a score of 0-4 for each of the previous categories and data were analyzed as a normalized compounded score.

[5] = 100 mg ABA/kg diet, 36 days, P<0.01
[6] = db/db mice, 100 mg/kg diet, 36 days, vs control high-fat diet

SMILES: CC1=CC(=O)CC(C)(C)C1(O)/C=C/C(C)=C\C(=O)O (racemic) [ABA, abscisic acid]
- F4/80hi CD11b+CCR2+ ATM subset ([1]; P=0.006): reduction
- F4/80lo ATM ([1]; db/db mice): no effect
- F4/80hi macrophage infiltration into WAT ([1]; db/db mice, P=0.05): significantly suppressed
- amount of F4/80 on surface of F4/80hi macrophages (MFI) ([1]; vs control diet): significantly lower
- mRNA expression of PPAR α or PPAR δ ([2]; 100 mg ABA/kg diet, 36 days): no significant differences
- WAT expression of CD36 mRNA [2, 5]: significant increase
- WAT expression of PPAR γ mRNA [2, 5]: significant increase
- WAT expression of aP2 mRNA ([2]; 100 mg ABA/kg diet, 36 days, P<0.02): significant increase
- WAT expression of adiponectin mRNA ([2]; 100 mg ABA/kg diet, 36 days, P<0.05): significant increase
- TNF-α mRNA expression in WAT ([2]; ABA-fed db/db mice, P<0.05): down-regulated
- prostaglandin E2 (PGE2) production ([3]; ABA feeding): decreased
- augmentation of proliferation of mesenteric lymph node-derived lymphocytes ([3]; following ABA feeding): 10 fold
- PPAR γ transactivation, comparison of the two agonists (PPAR γ): equally effective
- MCP-1 protein concentrations in plasma (db/db mice; ABA-fed db/db mice): significantly decreased
- decrease in plasma MCP-1 (db/db mice; ABA-fed db/db mice): 4 fold
- hepatic steatosis, liver histology (db/db mice; ABA-fed db/db mice): less severe
- fasting blood glucose (FBG) (db/db mice; [6]): significantly lower
- plasma TGs concentrations (db/db mice; [6]): significantly lower
- food intake or body weights (db/db mice; db/db mice, throughout the experiment): did not alter food intake or body weights
- amount of liver triglycerides (db/db mice; vs control diet): significantly lower
- MCP-1 promoter activity (MCP-1 promoter; ABA 12.5 μM, rosiglitazone 1 μM, co-transfection with PPAR γ expression vector): significantly enhanced the ability of both ABA and rosiglitazone to inhibit MCP-1 promoter activity
- effects on MCP-1 transactivation under cotreatment with antagonist (MCP-1 promoter; plus GW9662 30 μM): significantly inhibited by cotreatment with GW9662
- disease activity index (DAI) ([4]; 100 mg/kg diet 35 days, then 7 days 2.5% DSS): significantly reduced disease activity index
- body weight loss ([4]; DSS challenge, ABA vs control): no significant differences in body weight loss
- Epithelial erosion ([4]; colon histology, DSS colitis): significantly reduced
- leukocyte infiltration ([4]; colon histology, DSS colitis): significantly reduced
- mucosal thickening ([4]; colon histology, DSS colitis): significantly reduced
- colonic inflammation, macroscopic score ([4]; day 7 of DSS): significantly reduced colonic inflammation
- spleen or MLN macroscopic score ([4]; day 7 of DSS): no significant effect on the spleen or MLN

— patent US8367727B2, “Method of using abscisic acid to treat diseases and disorders” (priority 2006, dated 2013)
